# Measured values: PMC9166630, “SAR Probing of KX2-391 Provided Analogues With Juxtaposed Activity Profile Against Major Oncogenic Kinases” (Frontiers in Oncology, 2022)
# Like-named read-outs stand apart in the source and are kept apart here.
# What was measured:
# [1] = tested on: MV4-11 leukemia cell line; test: CellTiter-Blue cell viability assay, MV4-11; type: cell-based; conditions: Homo sapiens
# Experimental: (§1) HL60, K562, MV4-11 and NB4 were purchased from CLS Cell Line Service GmbH (Eppelheim, Germany). All cell lines were cultured in RPMI-1640 medium supplemented with 10% fetal bovine serum (FBS) (Thermo Fisher Scientific) and 0.1% ciprofloxacin (2.5mg/ml; Cipla Limited; Mumbai, India), and were maintained at 37°C in the presence of 21% O2 and 5% CO2.
# (§2) Cell viability was determined using the CellTiter®-Blue Cell Viability Assay kit (Promega, Madison, WI, USA). Approximately 10^4 cells were counted and plated in a 96-well plate in the presence of test compounds ranging from 0.01 to 10 or 20 µM in triplicate and were incubated for 48 h at 37°C in a humidified incubator. After the incubation period was complete, 20 µL of CellTiter®-Blue Cell Viability Assay reagent was added to each well and incubated for additional 2 h for the development of florescence. Florescence was measured at Ex/Em 540/590 on SpectraMax® i3 Multi-Mode microplate reader (Molecular Devices, LLC; San Jose, CA, USA) and plotted against drug concentration to determine the IC50 of the test compounds. The IC50 was obtained by non-linear regression model using GraphPad Prism 6.07 (GraphPad Software, Inc, USA).
# [2] = tested on: K562 leukemia cell line; test: CellTiter-Blue cell viability assay, K562; type: cell-based; conditions: Homo sapiens
# Experimental: as §1, §2
# [3] = tested on: HL60 leukemia cell line; test: CellTiter-Blue cell viability assay, HL60; type: cell-based; conditions: Homo sapiens, HL-60
# Experimental: as §1, §2
# [4] = tested on: NB4 leukemia cell line; test: CellTiter-Blue cell viability assay, NB4; type: cell-based, human; conditions: Homo sapiens
# Experimental: as §1, §2
# [5] = CellTiter-Blue, 48 h, maximum tested concentration 20 µM, read-out: IC50 ± SEM, MV4-11
# [6] = CellTiter-Blue, 48 h, maximum tested concentration 20 µM, read-out: IC50 ± SEM, K562
# [7] = CellTiter-Blue, 48 h, maximum tested concentration 20 µM, read-out: IC50 ± SEM, HL60
# [8] = 48 h, CellTiter-Blue, 48 h, maximum tested concentration 20 µM, read-out: IC50 ± SEM, NB4
SMILES,"IC50 [1, 5] [µM]","IC50 [2, 6] [µM]","IC50 [3, 7] [µM]","IC50 [4, 8] [µM]","IC50 ([1]; positive reference for validation, read-out: IC50, MV411) [µM]","IC50 ([2]; positive reference for validation, read-out: IC50, K562) [µM]","IC50 ([3]; positive reference for validation, read-out: IC50, HL60) [µM]","IC50 ([4]; positive reference for validation, read-out: IC50, NB4) [µM]",melting point [°C]
"O=C(Cc1ccc(NC(=O)c2cccc(OCCN3CCOCC3)c2)cc1)NCc1ccccc1 [Compound 4i, N-(4-(2-(benzylamino)-2-oxoethyl)phenyl)-3-(2-morpholinoethoxy)benzamide]",16.3 ± 4.43,17.4 ± 2.63,> 20,> 20,–,–,–,–,–
"O=C(Cc1ccc(NC(=O)c2ccc(OCCN3CCOCC3)c(Cl)c2)cc1)NCc1ccccc1 [Compound 4l, N-(4-(2-(benzylamino)-2-oxoethyl)phenyl)-3-chloro-4-(2-morpholinoethoxy) benzamide]",18.85 ± 0.12,12.96 ± 0.08,> 20,8.77 ± 1.75,–,–,–,–,147
"COc1ccc(C(=O)Nc2ccc(CC(=O)NCc3ccccc3)cc2)cc1Cl [Compound 4j, N-(4-(2-(benzylamino)-2-oxoethyl)phenyl)-3-chloro-4-methoxybenzamide]",20 ± 0.16,13.04 ± 0.04,> 20,5.33 ± 1.43,–,–,–,–,186
"COc1ccc(C(=O)Nc2ccc(CC(=O)NCc3ccccc3)cc2)cc1OC [Compound 4k, N-(4-(2-(benzylamino)-2-oxoethyl)phenyl)-3,4-dimethoxybenzamide]",7.95 ± 0.31,> 20,> 20,9.88 ± 2.8,–,–,–,–,215
"COc1cccc(C(=O)Nc2ccc(CC(=O)NCc3ccccc3)cc2)c1 [Compound 4h, N-(4-(2-(benzylamino)-2-oxoethyl)phenyl)-3-methoxybenzamide]",2.4 ± 0.49,4.23 ± 2.44,3.27 ± 0.15,1.96 ± 1.33,–,–,–,–,–

# Further lines, results first:
"IC50 [1, 5] [µM]","IC50 [2, 6] [µM]","IC50 [3, 7] [µM]","IC50 [4, 8] [µM]","IC50 ([1]; positive reference for validation, read-out: IC50, MV411) [µM]","IC50 ([2]; positive reference for validation, read-out: IC50, K562) [µM]","IC50 ([3]; positive reference for validation, read-out: IC50, HL60) [µM]","IC50 ([4]; positive reference for validation, read-out: IC50, NB4) [µM]",melting point [°C],SMILES
6.33 ± 4.24,12.4 ± 1.39,> 20,3.46 ± 0.06,–,–,–,–,–,"O=C(Cc1ccc(NC(=O)c2ccnc(Cl)c2)cc1)NCc1ccccc1 [Compound 4m, N-(4-(2-(benzylamino)-2-oxoethyl)phenyl)-2-chloroisonicotinamide]"
–,–,–,–,0.00419,0.0145,0.0121,0.0033,–,"O=C(Cc1ccc(-c2ccc(OCCN3CCOCC3)cc2)cn1)NCc1ccccc1 [KX2-391, Tirbanibulin]"
> 20,> 20,> 20,> 20,–,–,–,–,217,"O=C(Cc1ccc(NC(=O)c2ccc(Cl)o2)cc1)NCc1ccccc1 [Compound 4p, N-(4-(2-(benzylamino)-2-oxoethyl)phenyl)-5-chlorofuran-2-carboxamide]"
2.87 ± 0.3,4 ± 1.5,6.24 ± 3.3,1.74 ± 0.16,–,–,–,–,–,"O=C(Cc1ccc(NC(=O)c2cccc(Cl)c2)cn1)NCc1ccccc1 [Compound 4s, N-(6-(2-(benzylamino)-2-oxoethyl)pyridin-3-yl)-3-chlorobenzamide]"
> 20,> 20,> 20,–,–,–,–,–,160,"O=C(Cc1ccc(NC(=O)c2cccc(Cl)c2)cc1)NCCc1ccccc1 [Compound 4q, 3-Chloro-N-(4-(2-oxo-2-(phenethylamino)ethyl)phenyl)benzamide]"
> 20,> 20,> 20,5.89 ± 1.11,–,–,–,–,231,"O=C(Cc1ccc(NC(=O)c2cncc(Cl)c2)cc1)NCc1ccccc1 [Compound 4o, N-(4-(2-(benzylamino)-2-oxoethyl)phenyl)-5-chloronicotinamide]"
> 20,> 20,> 20,–,–,–,–,–,206,"O=C(Cc1ccc(NC(=O)c2cccc(Cl)c2)cc1)NCc1ccco1 [Compound 4r, 3-Chloro-N-(4-(2-((furan-2-ylmethyl)amino)-2-oxoethyl)phenyl)benzamide]"
